The values below come from article PMC8344263, “Tetrahydroquinazole-based secondary sulphonamides as carbonic anhydrase inhibitors: synthesis, biological evaluation against isoforms I, II, IV, and IX, and computational studies” (Journal of Enzyme Inhibition and Medicinal Chemistry, 2021).

One series concerns the target hCA I (Homo sapiens, UniProt P00915). As to the kind of experiment: stopped-flow CO2 hydrase assay, hCA I. Particulars: for Ki ratio CA I/CA IX: selectivity for hCA IX over hCA I.
The target of the next series is hCA II (Homo sapiens, UniProt P00918). As to the kind of experiment: stopped-flow CO2 hydrase assay, hCA II. Conditions: for Ki ratio CA II/CA IX: selectivity for hCA IX over hCA II.
Another series deals with hCA IV (Homo sapiens, UniProt P22748). The series is described as follows: stopped-flow CO2 hydrase assay, hCA IV. Conditions: for Ki ratio CA IV/CA IX: selectivity for hCA IX over hCA IV.
A further series has as its target hCA IX (Homo sapiens, UniProt Q16790). As to the kind of experiment: stopped-flow CO2 hydrase assay, hCA IX. Conditions: mean from three assays, errors ±5–10%.

The structures appear in SMILES notation. Values joined by “and” are separate entries in the source; they are usually repeats but may differ in a detail not shown here. Identical values can stand only once.

Chain of hCA I (P00915 whole entry): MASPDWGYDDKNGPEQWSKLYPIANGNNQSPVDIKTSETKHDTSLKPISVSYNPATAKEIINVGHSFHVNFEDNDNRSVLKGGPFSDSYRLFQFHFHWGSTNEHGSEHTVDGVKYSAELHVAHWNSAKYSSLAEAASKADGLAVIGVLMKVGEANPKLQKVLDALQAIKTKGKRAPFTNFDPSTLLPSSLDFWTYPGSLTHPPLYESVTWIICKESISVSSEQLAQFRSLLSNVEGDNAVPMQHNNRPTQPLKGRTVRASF
Chain of hCA IV (P22748 19-312): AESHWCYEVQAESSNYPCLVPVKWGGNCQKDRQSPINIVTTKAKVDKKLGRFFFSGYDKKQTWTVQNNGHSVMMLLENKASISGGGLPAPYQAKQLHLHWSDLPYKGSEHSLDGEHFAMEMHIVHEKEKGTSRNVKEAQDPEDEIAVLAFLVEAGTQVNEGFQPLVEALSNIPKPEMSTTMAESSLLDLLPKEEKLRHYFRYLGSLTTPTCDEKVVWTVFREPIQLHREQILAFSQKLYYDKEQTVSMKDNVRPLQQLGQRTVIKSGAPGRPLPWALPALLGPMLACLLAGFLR
Procedure for hCA II: (§1) An Applied Photophysics stopped-flow instrument was used for assaying the CA catalysed CO2 hydration activity[28]. […] The uncatalysed rates were determined in the same manner and subtracted from the total observed rates. Stock solutions of inhibitors (10 mM) were prepared in distilled-deionised water with 10% of DMSO and dilutions up to 0.01 µM were done thereafter with the assay buffer. The inhibitor and enzyme solutions were preincubated together for 15 min (standard assay at room temperature) prior to assay, to allow for the formation of the E-I complex. The inhibition constants were obtained by non-linear least-squares methods using PRISM 3 and the Cheng–Prusoff equation and represent the mean from at least three different determinations.
Procedure for hCA IV: as §1
Procedure for hCA IX: as §1

In turn, `O=C1CCCc2nc(Nc3ccc(S(=O)(=O)Nc4ccc([N+](=O)[O-])cc4)cc3)ncc21` [Compound 3, N-(4-nitrophenyl)-4-((5-oxo-5,6,7,8-tetrahydroquinazolin-2-yl)amino)benzenesulfonamide] had a melting point of 264 to 266 °C. On hCA I, this compound yielded a Ki of more than 100 µM. At hCA II, the Ki was more than 100 µM. The same compound returned a Ki on hCA IV of more than 100 µM. The compound further displayed a Ki at hCA IX of 0.42 µM.
Take `CC1(C)CC(=O)c2cnc(Nc3ccc(S(N)(=O)=O)cc3)nc2C1` [Compound 16c, 4-((5-oxo-7,7-dimethyl-5,6,7,8-tetrahydroquinazolin-2-yl)amino)benzenesulfonamide]: the melting point was 258 to 260 °C.
Compound `O=C1CC(c2ccccc2)Cc2nc(Nc3ccc(S(=O)(=O)Nc4ccccc4)cc3)ncc21` (centres unmarked) [Compound 5, 4-((5-Oxo-7-phenyl-5,6,7,8-tetrahydroquinazolin-2-yl)amino)-N-phenylbenzenesulfonamide] gave a melting point of 111 to 113 °C. In addition, at hCA I, the Ki was more than 100 µM and the “Ki ratio CA I/CA IX” value is on record as more than 222. Moreover, on hCA II, the Ki is more than 100 µM. On hCA IV, the inhibition constant (Ki) is more than 100 µM and the “Ki ratio CA IV/CA IX” value is more than 222. The Ki on hCA IX came out at 0.45 µM.
In turn, `Cc1ccc(NS(=O)(=O)c2ccc(Nc3ncc4c(n3)CC(c3ccccc3)CC4=O)cc2)cc1` (centres unmarked) [Compound 8, 4-((5-Oxo-7-phenyl-5,6,7,8-tetrahydroquinazolin-2-yl)amino)-N-(4-tolyl)benzenesulfonamide] gave a melting point of 83 to 85 °C. The same compound showed a Ki on hCA I of 46.1 µM. At hCA II, the affinity corresponds to a Ki of 13 µM. The Ki on hCA IV is more than 100 µM. The same compound yielded a Ki at hCA IX of 15.7 µM.
The like results for `COc1ccc(NS(=O)(=O)c2ccc(Nc3ncc4c(n3)CCCC4=O)cc2)cc1` [Compound 2, N-(4-methoxyphenyl)-4-((5-oxo-5,6,7,8-tetrahydroquinazolin-2-yl)amino)benzenesulfonamide] were, in that order, 233 to 235 °C, more than 100 µM, 50.3 µM, more than 100 µM and 0.46 µM.
In the same order, the values of `CC1(C)CC(=O)c2cnc(Nc3ccc(S(=O)(=O)Nc4ccc([N+](=O)[O-])cc4)cc3)nc2C1` [Compound 11, 4-((7,7-Dimethyl-5-oxo-5,6,7,8-tetrahydroquinazolin-2-yl)amino)-N-(4-nitrophenyl)benzenesulfonamide] are 264 to 266 °C, 62 µM, 6.9 µM, more than 100 µM and more than 100 µM.
`Cc1ccc(NS(=O)(=O)c2ccc(Nc3ncc4c(n3)CCCC4=O)cc2)cc1` [Compound 4, 4-((5-Oxo-5,6,7,8-tetrahydroquinazolin-2-yl)amino)-N-(4-tolyl)benzenesulfonamide] showed a melting point of 272 to 274 °C. At hCA I, the Ki is more than 100 µM; the “Ki ratio CA I/CA IX” value was > 96 and >100 [CA I/CA IX]^b>96. For the same compound, on hCA II, the Ki was more than 100 µM; the “Ki ratio CA II/CA IX” value is > 96 and >100 [CA II/CA IX]^b>96. In addition, at hCA IV, the Ki is more than 100 µM; the “Ki ratio CA IV/CA IX” value is > 96 and >100 [CA IV/CA IX]^b>96. Affinity at hCA IX was put at a Ki of 1.04 µM.
The compound `O=C1CC(c2ccccc2)Cc2nc(Nc3ccc(S(=O)(=O)Nc4ccc([N+](=O)[O-])cc4)cc3)ncc21` (centres unmarked) [Compound 7, N-(4-nitrophenyl)-4-((5-oxo-7-phenyl-5,6,7,8-tetrahydroquinazolin-2-yl)amino)benzenesulfonamide] returned a melting point of 118 to 120 °C. Besides, at hCA I, the Ki is more than 100 µM and the “Ki ratio CA I/CA IX” value was more than 75.2. Besides, on hCA II, the Ki was 67.5 µM and the “Ki ratio CA II/CA IX” value was 50.7. For the same compound, on hCA IV, the Ki is more than 100 µM and the “Ki ratio CA IV/CA IX” value is recorded as more than 75.2. Also, the Ki at hCA IX was 1.33 µM.
As to `O=C1CCCc2nc(Nc3ccc(S(=O)(=O)Nc4ccccc4)cc3)ncc21` [Compound 1, 4-((5-Oxo-5,6,7,8-tetrahydroquinazolin-2-yl)amino)-N-phenylbenzenesulfonamide], the melting point lay within 281 to 283 °C. The same compound came in with a Ki on hCA I of 89.1 µM. The same compound showed a Ki on hCA II of 41.2 µM. The compound further yielded a Ki at hCA IV of more than 100 µM. Moreover, the Ki on hCA IX came out at 0.48 µM.
In turn, `COc1ccc(NS(=O)(=O)c2ccc(Nc3ncc4c(n3)CC(c3ccccc3)CC4=O)cc2)cc1` (centres unmarked) [Compound 6, N-(4-methoxyphenyl)-4-((5-oxo-7-phenyl-5,6,7,8-tetrahydroquinazolin-2-yl)amino)benzenesulfonamide] came in with a melting point of 103 to 105 °C. In addition, at hCA I, the Ki stood at 34 µM and the “Ki ratio CA I/CA IX” value amounted to 19.6. Besides, at hCA II, the Ki stood at 11.5 µM and the “Ki ratio CA II/CA IX” value is 6.6. Moreover, at hCA IV, the Ki is more than 100 µM and the “Ki ratio CA IV/CA IX” value was more than 57.8. The same compound displayed a Ki at hCA IX of 1.73 µM.
As for `Cc1ccc(NS(=O)(=O)c2ccc(Nc3ncc4c(n3)CC(C)(C)CC4=O)cc2)cc1` [Compound 12, 4-((7,7-Dimethyl-5-oxo-5,6,7,8-tetrahydroquinazolin-2-yl)amino)-N-(p-tolyl)benzenesulfonamide], the melting point was 246 to 248 °C. The same compound had a Ki on hCA I of 84.9 µM. This compound also had a Ki on hCA II of 22.4 µM. This compound also came in with a Ki on hCA IV of 62.1 µM. The affinity at hCA IX, expressed as Ki, was 19.3 µM.
On to `NS(=O)(=O)c1ccc(Nc2ncc3c(n2)CCCC3=O)cc1` [Compound 16a, 4-((5-oxo-5,6,7,8-tetrahydroquinazolin-2-yl)amino)benzenesulfonamide], for which the melting point was in the range of 294 to 296 °C.
`COc1ccc(NS(=O)(=O)c2ccc(Nc3ncc4c(n3)CC(C)(C)CC4=O)cc2)cc1` [Compound 10, 4-((7,7-Dimethyl-5-oxo-5,6,7,8-tetrahydroquinazolin-2-yl)amino)-N-(4-methoxyphenyl)benzenesulfonamide] gave a melting point of 210 to 212 °C. For the same compound, the Ki at hCA I amounted to 24.7 µM. This compound came in with a Ki at hCA II of 5.1 µM. At hCA IV, this compound gave a Ki of 78.1 µM. The compound further came in with a Ki at hCA IX of 48.1 µM.
In turn, `NS(=O)(=O)c1ccc(Nc2ncc3c(n2)CC(c2ccccc2)CC3=O)cc1` (centres unmarked) [Compound 16b, 4-((5-oxo-7-phenyl-5,6,7,8-tetrahydroquinazolin-2-yl)amino)benzenesulfonamide] gave a melting point of 214 to 215 °C.
`CC1(C)CC(=O)c2cnc(Nc3ccc(S(=O)(=O)Nc4ccccc4)cc3)nc2C1` [Compound 9, 4-((7,7-Dimethyl-5-oxo-5,6,7,8-tetrahydroquinazolin-2-yl)amino)-N-phenylbenzenesulfonamide] gave a melting point of 215 to 217 °C. On hCA I, this compound came in with a Ki of 70.5 µM. The same compound returned a Ki at hCA II of 7.4 µM. For the same compound, the inhibition constant Ki on hCA IV turned out to be 91.1 µM. For the same compound, the Ki at hCA IX stood at 47.3 µM.
